What was measured:
MDA-MB-231 = experiment: Antiproliferative activity against human MDA-MB-231 cells reduction in cell viability measured after 48 hrs by MTT assay; format: functional, cell-based
MCF7 = experiment: Antiproliferative activity against human MCF7 cells reduction in cell viability measured after 48 hrs by MTT assay; format: functional, cell-based
HEK-293T = experiment: Cytotoxicity against human 293T cells assessed as reduction in cell viability measured after 48 hrs by MTT assay; format: cell-based
[1] = biological target: GTPase KRas (Homo sapiens) (UniProt P01116); experiment: Inhibition of KRAS in human MDA-MB-231 cells assessed as reduction in Pan RAS protein level at 15 uM measured after 24 hrs by Western blot analysis relative to control; format: cell-based
[2] = biological target: GTPase KRas (Homo sapiens) (UniProt P01116); experiment: Inhibition of KRAS in human MDA-MB-231 cells assessed as reduction in phosphorylated RAF-1 E1 protein level at 15 uM measured after 24 hrs by Western blot analysis relative to control; format: cell-based
[3] = biological target: GTPase KRas (Homo sapiens) (UniProt P01116); experiment: Inhibition of KRAS in human MDA-MB-231 cells assessed as reduction in MEK1/2 9G3 protein level at 15 uM measured after 24 hrs by Western blot analysis relative to control; format: cell-based
[4] = biological target: GTPase KRas (Homo sapiens) (UniProt P01116); experiment: Inhibition of KRAS in human MDA-MB-231 cells assessed as reduction in phosphorylated MEK1/2 at Ser217/221 residues protein level at 15 uM measured after 24 hrs by Western blot analysis relative to control; format: cell-based
[5] = biological target: GTPase KRas (Homo sapiens) (UniProt P01116); experiment: Inhibition of KRAS in human MDA-MB-231 cells assessed as reduction in ERK1/2 137F5 protein level at 15 uM measured after 24 hrs by Western blot analysis relative to control; format: cell-based
[6] = biological target: GTPase KRas (Homo sapiens) (UniProt P01116); experiment: Inhibition of KRAS in human MDA-MB-231 cells assessed as reduction in phosphorylated ERK1/2 at Thr185/Tyr187 residues protein level at 15 uM measured after 24 hrs by Western blot analysis relative to control; format: cell-based
[7] = biological target: GTPase KRas (Homo sapiens) (UniProt P01116); experiment: Inhibition of KRAS in human MDA-MB-231 cells assessed as reduction in Pan RAS protein level at 25 uM measured after 24 hrs by Western blot analysis relative to control; format: cell-based
[8] = biological target: GTPase KRas (Homo sapiens) (UniProt P01116); experiment: Inhibition of KRAS in human MDA-MB-231 cells assessed as reduction in phosphorylated RAF-1 E1 protein level at 25 uM measured after 24 hrs by Western blot analysis relative to control; format: cell-based
[9] = biological target: GTPase KRas (Homo sapiens) (UniProt P01116); experiment: Inhibition of KRAS in human MDA-MB-231 cells assessed as reduction in MEK1/2 9G3 protein level at 25 uM measured after 24 hrs by Western blot analysis relative to control; format: cell-based
[10] = biological target: GTPase KRas (Homo sapiens) (UniProt P01116); experiment: Inhibition of KRAS in human MDA-MB-231 cells assessed as reduction in phosphorylated MEK1/2 at Ser217/221 residues protein level at 25 uM measured after 24 hrs by Western blot analysis relative to control; format: cell-based
[11] = biological target: GTPase KRas (Homo sapiens) (UniProt P01116); experiment: Inhibition of KRAS in human MDA-MB-231 cells assessed as reduction in ERK1/2 137F5 protein level at 25 uM measured after 24 hrs by Western blot analysis relative to control; format: cell-based
[12] = biological target: GTPase KRas (Homo sapiens) (UniProt P01116); experiment: Inhibition of KRAS in human MDA-MB-231 cells assessed as reduction in phosphorylated ERK1/2 at Thr185/Tyr187 residues protein level at 25 uM measured after 24 hrs by Western blot analysis relative to control; format: cell-based
[13] = biological target: GTPase KRas (Homo sapiens) (UniProt P01116); experiment: Inhibition of KRAS in human MDA-MB-231 cells assessed as reduction in Pan RAS protein level at 35 uM measured after 24 hrs by Western blot analysis relative to control; format: cell-based
[14] = biological target: GTPase KRas (Homo sapiens) (UniProt P01116); experiment: Inhibition of KRAS in human MDA-MB-231 cells assessed as reduction in phosphorylated RAF-1 E1 protein level at 35 uM measured after 24 hrs by Western blot analysis relative to control; format: cell-based
[15] = biological target: GTPase KRas (Homo sapiens) (UniProt P01116); experiment: Inhibition of KRAS in human MDA-MB-231 cells assessed as reduction in MEK1/2 9G3 protein level at 35 uM measured after 24 hrs by Western blot analysis relative to control; format: cell-based
[16] = biological target: GTPase KRas (Homo sapiens) (UniProt P01116); experiment: Inhibition of KRAS in human MDA-MB-231 cells assessed as reduction in phosphorylated MEK1/2 at Ser217/221 residues protein level at 35 uM measured after 24 hrs by Western blot analysis relative to control; format: cell-based
[17] = biological target: GTPase KRas (Homo sapiens) (UniProt P01116); experiment: Inhibition of KRAS in human MDA-MB-231 cells assessed as reduction in ERK1/2 137F5 protein level at 35 uM measured after 24 hrs by Western blot analysis relative to control; format: cell-based
[18] = biological target: GTPase KRas (Homo sapiens) (UniProt P01116); experiment: Inhibition of KRAS in human MDA-MB-231 cells assessed as reduction in phosphorylated ERK1/2 at Thr185/Tyr187 residues protein level at 35 uM measured after 24 hrs by Western blot analysis relative to control; format: cell-based
[19] = biological target: GTPase KRas (Homo sapiens) (UniProt P01116); experiment: Inhibition of KRAS in human MCF7 cells assessed as reduction in Pan RAS protein level at 15 uM measured after 24 hrs by Western blot analysis relative to control; format: cell-based
[20] = biological target: GTPase KRas (Homo sapiens) (UniProt P01116); experiment: Inhibition of KRAS in human MCF7 cells assessed as reduction in phosphorylated RAF-1 E1 protein level at 15 uM measured after 24 hrs by Western blot analysis relative to control; format: cell-based
[21] = biological target: GTPase KRas (Homo sapiens) (UniProt P01116); experiment: Inhibition of KRAS in human MCF7 cells assessed as reduction in MEK1/2 9G3 protein level at 15 uM measured after 24 hrs by Western blot analysis relative to control; format: cell-based
[22] = biological target: GTPase KRas (Homo sapiens) (UniProt P01116); experiment: Inhibition of KRAS in human MCF7 cells assessed as reduction in phosphorylated MEK1/2 at Ser217/221 residues protein level at 15 uM measured after 24 hrs by Western blot analysis relative to control; format: cell-based
[23] = biological target: GTPase KRas (Homo sapiens) (UniProt P01116); experiment: Inhibition of KRAS in human MCF7 cells assessed as reduction in ERK1/2 137F5 protein level at 15 uM measured after 24 hrs by Western blot analysis relative to control; format: cell-based
[24] = biological target: GTPase KRas (Homo sapiens) (UniProt P01116); experiment: Inhibition of KRAS in human MCF7 cells assessed as reduction in phosphorylated ERK1/2 at Thr185/Tyr187 residues protein level at 15 uM measured after 24 hrs by Western blot analysis relative to control; format: cell-based
[25] = biological target: GTPase KRas (Homo sapiens) (UniProt P01116); experiment: Inhibition of KRAS in human MCF7 cells assessed as reduction in Pan RAS protein level at 25 uM measured after 24 hrs by Western blot analysis relative to control; format: cell-based
[26] = biological target: GTPase KRas (Homo sapiens) (UniProt P01116); experiment: Inhibition of KRAS in human MCF7 cells assessed as reduction in phosphorylated RAF-1 E1 protein level at 25 uM measured after 24 hrs by Western blot analysis relative to control; format: cell-based
[27] = biological target: GTPase KRas (Homo sapiens) (UniProt P01116); experiment: Inhibition of KRAS in human MCF7 cells assessed as reduction in MEK1/2 9G3 protein level at 25 uM measured after 24 hrs by Western blot analysis relative to control; format: cell-based
[28] = biological target: GTPase KRas (Homo sapiens) (UniProt P01116); experiment: Inhibition of KRAS in human MCF7 cells assessed as reduction in phosphorylated MEK1/2 at Ser217/221 residues protein level at 25 uM measured after 24 hrs by Western blot analysis relative to control; format: cell-based

Q: What does the source list for `O=P(Oc1ccccc1)(Oc1ccccc1)OC1C2OC3(c4ccccc4)OC(C2O)C(O)C1O3` (stereo not drawn)?
A: Activity (MDA-MB-231): Dose-dependent effect; IC50 (MDA-MB-231; MDA-MB-231, 48 h): 22.4 µM; Activity (MCF7): Dose-dependent effect; IC50 (MCF7; MCF7, 48 h): 35.1 µM; IC50 (HEK-293T): 39.5 µM; fold change (FC) [1]: 1.16; fold change (FC) [2]: 0.85; fold change (FC) [3]: 0.91; fold change (FC) [4]: 1.24; fold change (FC) [5]: 0.99; fold change (FC) [6]: 1.15; fold change (FC) [7]: 1.18; fold change (FC) [8]: 0.14; fold change (FC) [9]: 0.61; fold change (FC) [10]: 0.97; fold change (FC) [11]: 0.91; fold change (FC) [12]: 1; fold change (FC) [13]: 0.46; fold change (FC) [14]: 0.17; fold change (FC) [15]: 0.46; fold change (FC) [16]: 0.53; fold change (FC) [17]: 0.93; fold change (FC) [18]: 0.42; fold change (FC) [19]: 0.99; fold change (FC) [20]: 1.06; fold change (FC) [21]: 0.97; fold change (FC) [22]: 0.91; fold change (FC) [23]: 1.25; fold change (FC) [24]: 1.02; fold change (FC) [25]: 1.16; fold change (FC) [26]: 0.99; fold change (FC) [27]: 1.06; fold change (FC) [28]: 1.12

— ChEMBL document CHEMBL4622932, “Design, synthesis and biological evaluation of new Myo-inositol derivatives as potential RAS inhibitors” (Bioorg Med Chem Lett, 2020)
